From patent publication US12643867B2, “Compositions and uses thereof” (University of Virginia Patent Foundation, priority 2017, dated 2026)

Experiments:
Assay in all cases: SILAC LC-MS ATP acyl phosphate probe competition, native kinases in HEK293T
Type in all cases: binding
[1] = target: T1, CDK5 (Cell division protein kinase 5) (Homo sapiens, UniProt Q00535); details: site Lys2; ATP 1 mM; Ketanserin, Ritanserin 100 μM; RF001 1 mM
T1 construct: measured against >50 native kinases quantified in HEK293T soluble proteomes; endogenous in cells; host or cells: HEK293T soluble proteome
In short: (§1)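 Light and heavy SILAC HEK293T proteomes (2 mg/ml in kinase buffer) were pre-treated with DMSO or compound (50× stock in DMSO) for 30 min at 25° C, then mixed 1:1, reduced, alkylated and digested with trypsin/Lys-C. Desthiobiotin-labelled peptides were avidin-enriched and analysed by LC-MS/MS on an Orbitrap, top-10 data-dependent acquisition.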

[2] = target: T2, KS6B2 (Ribosomal protein S6 kinase 2) (Homo sapiens, UniProt Q9UBS0); details: site Lys2; ATP 1 mM; Ketanserin, Ritanserin 100 μM; RF001 1 mM
T2 construct: measured against >50 native kinases quantified in HEK293T soluble proteomes; endogenous in cells; host or cells: HEK293T soluble proteome
In short: as §1

[3] = target: T3, MP2K4 (Dual specificity mitogen-activated protein kinase kinase 4) (Homo sapiens, UniProt P45985); details: site Lys2; ATP 1 mM; Ketanserin, Ritanserin 100 μM; RF001 1 mM
T3 construct: Native kinases; endogenous in cells; host or cells: HEK293T soluble proteome
T3 sequence (P45985 1-399): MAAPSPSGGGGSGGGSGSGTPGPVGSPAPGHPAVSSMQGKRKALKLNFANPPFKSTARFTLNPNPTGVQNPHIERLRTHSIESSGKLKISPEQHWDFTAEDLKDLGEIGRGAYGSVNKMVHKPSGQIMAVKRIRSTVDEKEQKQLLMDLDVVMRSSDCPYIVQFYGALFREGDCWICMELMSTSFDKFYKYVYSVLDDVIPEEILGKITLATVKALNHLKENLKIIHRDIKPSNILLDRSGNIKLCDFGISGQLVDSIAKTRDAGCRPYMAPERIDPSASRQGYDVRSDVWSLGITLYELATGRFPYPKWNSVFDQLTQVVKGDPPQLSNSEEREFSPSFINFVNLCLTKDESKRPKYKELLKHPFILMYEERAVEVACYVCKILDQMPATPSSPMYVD
In short: as §1

[4] = target: T4, NEK3 (Serine/threonine-protein kinase Nek3) (Homo sapiens, UniProt P51956); details: site ACT; ATP 1 mM; Ketanserin, Ritanserin 100 μM; RF001 1 mM
T4 construct: Native kinases; endogenous in cells; host or cells: HEK293T soluble proteome
T4 sequence (P51956 1-506): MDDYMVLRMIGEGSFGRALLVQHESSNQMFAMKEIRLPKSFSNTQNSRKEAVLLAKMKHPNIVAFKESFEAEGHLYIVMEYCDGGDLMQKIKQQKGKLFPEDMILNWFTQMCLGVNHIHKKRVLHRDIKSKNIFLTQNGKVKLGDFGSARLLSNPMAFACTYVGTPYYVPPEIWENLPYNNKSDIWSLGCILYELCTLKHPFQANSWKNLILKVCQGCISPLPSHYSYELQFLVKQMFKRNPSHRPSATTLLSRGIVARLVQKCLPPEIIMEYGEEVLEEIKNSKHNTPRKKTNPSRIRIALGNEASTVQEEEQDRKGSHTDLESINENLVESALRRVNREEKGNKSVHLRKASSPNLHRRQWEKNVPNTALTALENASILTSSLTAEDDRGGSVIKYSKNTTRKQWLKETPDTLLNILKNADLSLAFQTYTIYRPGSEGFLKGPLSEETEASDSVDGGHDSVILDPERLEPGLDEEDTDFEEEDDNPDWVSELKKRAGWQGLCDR
In short: as §1

T1 sequence (Q00535 whole entry): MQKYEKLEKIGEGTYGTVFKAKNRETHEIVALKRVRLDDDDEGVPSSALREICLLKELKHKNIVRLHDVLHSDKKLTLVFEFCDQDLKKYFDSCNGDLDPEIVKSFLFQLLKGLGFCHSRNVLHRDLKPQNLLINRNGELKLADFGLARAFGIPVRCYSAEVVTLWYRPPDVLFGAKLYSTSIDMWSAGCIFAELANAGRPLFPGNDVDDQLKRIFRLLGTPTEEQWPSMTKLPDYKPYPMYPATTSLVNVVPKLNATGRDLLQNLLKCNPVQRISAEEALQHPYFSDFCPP
T2 sequence (Q9UBS0 whole entry): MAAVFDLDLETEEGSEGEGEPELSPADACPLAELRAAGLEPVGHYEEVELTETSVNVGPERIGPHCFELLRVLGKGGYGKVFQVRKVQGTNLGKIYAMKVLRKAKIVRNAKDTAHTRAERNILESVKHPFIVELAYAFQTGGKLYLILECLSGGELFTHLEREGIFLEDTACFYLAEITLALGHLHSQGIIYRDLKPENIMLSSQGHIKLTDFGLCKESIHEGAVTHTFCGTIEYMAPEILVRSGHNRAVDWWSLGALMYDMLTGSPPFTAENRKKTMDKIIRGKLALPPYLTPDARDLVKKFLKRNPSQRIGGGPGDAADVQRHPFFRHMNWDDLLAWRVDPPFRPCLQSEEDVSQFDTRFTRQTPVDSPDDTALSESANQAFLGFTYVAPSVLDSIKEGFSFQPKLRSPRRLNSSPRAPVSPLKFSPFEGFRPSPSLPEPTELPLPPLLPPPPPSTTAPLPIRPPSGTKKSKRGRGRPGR

| SILAC ratio, CDK5 probe-modified peptide [1] | SILAC ratio, KS6B2 probe-modified peptide [2] | SILAC ratio, MP2K4 probe-modified peptide [3] | SILAC ratio, NEK3 probe-modified peptide [4] | Structure (SMILES) |
| --- | --- | --- | --- | --- |
| 1.1 | 1.7 | 0.9 | 1.0 | Fc1ccc(C(=C2CCNCC2)c2ccc(F)cc2)cc1 [RF001, 4-(Bis(4-fluorophenyl)methylene) piperidine] |
| 1.3 | 1.1 | 1.3 | 1.0 | O=C(c1ccc(F)cc1)C1CCN(CCn2c(=O)[nH]c3ccccc3c2=O)CC1 [Ketanserin] |

| Structure (SMILES) | SILAC ratio, CDK5 probe-modified peptide [1] | SILAC ratio, KS6B2 probe-modified peptide [2] | SILAC ratio, MP2K4 probe-modified peptide [3] | SILAC ratio, NEK3 probe-modified peptide [4] |
| --- | --- | --- | --- | --- |
| Cc1nc2sccn2c(=O)c1CCN1CCC(=C(c2ccc(F)cc2)c2ccc(F)cc2)CC1 [Ritanserin] | 1.9 | 1.4 | 1.6 | 2.2 |
